We go through four molecules from patent publication US6599937B1, “Unsaturated oxyalkylene esters and uses thereof” (Beacon Laboratories, Inc., priority 1997, dated 2003).

For one experiment, the system named is CFPAC. Briefly: SRB assay, inhibition of cancer cell proliferation, CFPAC. In kind it is cell-based. As for the experimental part: (§1) The inhibition of cell proliferation was measured in the indicated cancer cell lines using the sulforhodamine B (SRB) assay as described by Monks et al., 1991, J. Natl. Can. Inst. 83:757-766. The SRB assay is used to screen for anti-cancer drugs. […] The table provides the dosage of each compound (in mM) which inhibited fifty percent (IC50) or ninety percent (IC90) of proliferation when calculated using the Chou Analysis' Median Effective Dose equation.

Another experiment has as its system PC-3. Briefly: SRB assay, inhibition of cancer cell proliferation, PC-3. The experiment is classed as cell-based, human. The method, then: as §1
Another experiment relates to SF-295. Briefly: SRB assay, inhibition of cancer cell proliferation, SF-295. In kind it is cell-based. As for the experimental part: as §1
The subject of another experiment is HL-60. The experiment is described as follows: SRB assay, inhibition of cancer cell proliferation, HL-60. The experiment is classed as cell-based, human. The method, then: (§2) Human promyelocytic leukemia cells (HL-60), human pancreatic carcinoma cells (PaCa-2) and human breast adenocarcinoma cells, pleural effusion cells (MCF-7) can be cultured as follows. Cells are grown in RPMI media with 10% FCS, supplemented with 2 mM glutamine and incubated at 37° C. in a humidified 5% CO2 incubator. Alternatively, cells can be grown in any other appropriate growth medium and conditions which supports the growth of the cell line under investigation. Viability can be determined by trypan blue exclusion. Cells are exposed to a test compound, cultures are harvested at various time points following treatment and stained with trypan blue. The inhibition of cell proliferation was measured in the indicated cancer cell lines using the sulforhodamine B (SRB) assay as described by Monks et al., 1991, J. Natl. Can. Inst. 83:757-766. The SRB assay is used to screen for anti-cancer drugs. […] The table provides the dosage of each compound (in mM) which inhibited fifty percent (IC50) or ninety percent (IC90) of proliferation when calculated using the Chou Analysis' Median Effective Dose equation.

A further experiment has as its system HT29. The experiment is described as follows: SRB assay, inhibition of cancer cell proliferation, HT29. In kind it is cell-based. The method, then: as §1
The subject of the next experiment is OVCAR-5. The experiment is described as follows: SRB assay, inhibition of cancer cell proliferation, OVCAR-5. In kind it is cell-based. The method, then:
as §1

Another experiment has as its system NCI-H23. The experiment is described as follows: SRB assay, inhibition of cancer cell proliferation, NCI-H23. The experiment is classed as cell-based. The method, then: as §1
The subject of a further experiment is MCF7. Briefly: SRB assay, inhibition of cancer cell proliferation, MCF7. In kind it is cell-based, human. As for the experimental part:
as §2

For the next experiment, the system named is NCI-H522. The experiment is described as follows: SRB assay, inhibition of cancer cell proliferation, NCI-H522. The experiment is classed as cell-based. The method, then:
as §1

A further experiment deals with LOX IMVI. Briefly: SRB assay, inhibition of cancer cell proliferation, LOX IMVI. The experiment is classed as cell-based. The method, then: as §1
The next experiment deals with HL-60 cells. The settings on record: HL-60 cells cultured 3 days. As for the experimental part: Cancer cell differentiation was evaluated in a human leukemia cell line by changes in expression of myelocytic maturation marker CD11b. The level of CD11b was measured on HL-60 cells by flow cytometry using a monoclonal antibody (MAb) against CD11b in a standard indirect immunofluorescence assay. Cells were cultured for 3 days with media or the indicated concentration of DiMeOCOMB. Cultured cells were collected by centrifugation, resuspended at 10^6 cells per 20μ RPMI+10% FCS and incubated with MAb for 30 min at […]. The cells were washed twice in cold PBS+[…] FCS and incubated with a 1:20 dilution of FITC-conjugated F(ab′)^2 fragment of rabbit anti-mouse IgG for 20-30 min at […]. in the dark. After washing the cells twice in cold PBS+10% FCS, the flow cytometry was performed.

[1] abbreviates: CFPAC cell line, SRB assay, Chou Median Effective Dose equation, read-out: IC50.
Setting [2] is: CFPAC cell line, SRB assay, Chou Median Effective Dose equation, read-out: IC90.
Setting [3] is: Homo sapiens, PC-3 cell line, SRB assay, Chou Median Effective Dose equation, read-out: IC50.
The mark [4] stands for this setting: Homo sapiens, PC-3 cell line, SRB assay, Chou Median Effective Dose equation, read-out: IC90.
The mark [5] stands for this setting: Homo sapiens, SF-295 cell line, SRB assay, Chou Median Effective Dose equation, read-out: IC50.
Where [6] appears, read: Homo sapiens, SF-295 cell line, SRB assay, Chou Median Effective Dose equation, read-out: IC90.
Setting [7] is: Homo sapiens, HL-60 cell line, SRB assay, Chou Median Effective Dose equation, read-out: IC50.
Where [8] appears, read: Homo sapiens, HL-60 cell line, SRB assay, Chou Median Effective Dose equation, read-out: IC90.
Where [9] appears, read: Homo sapiens, HT-29, HT29 cell line, SRB assay, Chou Median Effective Dose equation, read-out: IC50.
The mark [10] stands for this setting: Homo sapiens, HT-29, HT29 cell line, SRB assay, Chou Median Effective Dose equation, read-out: IC90.
Setting [11] is: Homo sapiens, OVCAR-5 cell line, SRB assay, Chou Median Effective Dose equation, read-out: IC50.
[12] abbreviates: Homo sapiens, OVCAR-5 cell line, SRB assay, Chou Median Effective Dose equation, read-out: IC90.
The mark [13] stands for this setting: Homo sapiens, NCI-H23 cell line, SRB assay, Chou Median Effective Dose equation, read-out: IC50.
Setting [14] is: Homo sapiens, NCI-H23 cell line, SRB assay, Chou Median Effective Dose equation, read-out: IC90.
The mark [15] stands for this setting: Homo sapiens, MCF7 cell line, SRB assay, Chou Median Effective Dose equation, read-out: IC50.
The mark [16] stands for this setting: Homo sapiens, MCF7 cell line, SRB assay, Chou Median Effective Dose equation, read-out: IC90.
The mark [17] stands for this setting: Homo sapiens, NCI-H522 cell line, SRB assay, Chou Median Effective Dose equation, read-out: IC50.
Where [18] appears, read: Homo sapiens, NCI-H522 cell line, SRB assay, Chou Median Effective Dose equation, read-out: IC90.
The mark [19] stands for this setting: Homo sapiens, LOX IMVI cell line, SRB assay, Chou Median Effective Dose equation, read-out: IC50.
Setting [20] is: Homo sapiens, LOX IMVI cell line, SRB assay, Chou Median Effective Dose equation, read-out: IC90.

Where two headings read alike, the source gives them in different places.

Turning to `CC(Cc1ccccc1)C(=O)O` (centres unmarked) [MePPA, 2-methyl-3-phenylpropionic acid, reference compound], the IC50 in the experiment with CFPAC was 3540 µM; in the experiment on PC-3 (Homo sapiens, PC-3), more than 4000 µM; in the experiment on SF-295 (Homo sapiens, SF-295), more than 4000 µM; with HL-60 (Homo sapiens, HL-60), more than 4000 µM; with HT29 (Homo sapiens, HT-29) it was more than 4000 µM; in the experiment on OVCAR-5 (Homo sapiens, OVCAR-5), more than 4000 µM. The IC50 was more than 4000 µM in the experiment with NCI-H23 (Homo sapiens, NCI-H23); more than 4000 µM with MCF7 (Homo sapiens, MCF7); more than 4000 µM in the experiment with NCI-H522 (Homo sapiens, NCI-H522); more than 4000 µM in the experiment with LOX IMVI (Homo sapiens, LOX IMVI). The IC90 was more than 4000 µM in the experiment on CFPAC; more than 4000 µM in the experiment with PC-3 (Homo sapiens, PC-3); more than 4000 µM with SF-295 (Homo sapiens, SF-295); more than 4000 µM in the experiment with HL-60 (Homo sapiens, HL-60); more than 4000 µM in the experiment on HT29 (Homo sapiens, HT-29); more than 4000 µM with OVCAR-5 (Homo sapiens, OVCAR-5). For the same molecule, the IC90 in the experiment on NCI-H23 (Homo sapiens, NCI-H23) was more than 4000 µM; in the experiment with MCF7 (Homo sapiens, MCF7), more than 4000 µM; in the experiment with NCI-H522 (Homo sapiens, NCI-H522) it was more than 4000 µM; in the experiment with LOX IMVI (Homo sapiens, LOX IMVI), more than 4000 µM.
With `CCCC(=O)OCOC(=O)C=Cc1ccc(OC)c(OC)c1` [DiMeOCOMB, 3,4-Dimethyoxycinnamoyloxymethyl Butyrate], the “% CD11b Cells” value with HL-60 cells (concentration 50 μM (media control 12.2)) stood at 87.5%; in the experiment on HL-60 cells (concentration 100 μM (media control 12.2)), 88.6%; in the experiment with HL-60 cells (concentration 203 μM (media control 12.2)), 90.4%. The IC50 came out at 308 µM with CFPAC (setting [1]); 1440 µM in the experiment on PC-3 (PC-3 cell line, SRB assay, Chou Median Effective Dose equation, read-out: IC50); 764 µM in the experiment on SF-295 (SF-295 cell line, SRB assay, Chou Median Effective Dose equation, read-out: IC50); 203 µM with HL-60 (HL-60 cell line, SRB assay, Chou Median Effective Dose equation, read-out: IC50); 406 µM in the experiment on HT29 (HT29 cell line, SRB assay, Chou Median Effective Dose equation, read-out: IC50); 1460 µM in the experiment with OVCAR-5 (OVCAR-5 cell line, SRB assay, Chou Median Effective Dose equation, read-out: IC50). The IC50 is 785 µM with NCI-H23 (NCI-H23 cell line, SRB assay, Chou Median Effective Dose equation, read-out: IC50); 301 µM in the experiment on MCF7 (MCF7 cell line, SRB assay, Chou Median Effective Dose equation, read-out: IC50); 752 µM in the experiment with NCI-H522 (NCI-H522 cell line, SRB assay, Chou Median Effective Dose equation, read-out: IC50); 772 µM with LOX IMVI (LOX IMVI cell line, SRB assay, Chou Median Effective Dose equation, read-out: IC50). Moreover, the IC90 with CFPAC (setting [2]) worked out at 3570 µM; with PC-3 (PC-3 cell line, SRB assay, Chou Median Effective Dose equation, read-out: IC90), 1870 µM; with SF-295 (SF-295 cell line, SRB assay, Chou Median Effective Dose equation, read-out: IC90) it was 977 µM; in the experiment on HL-60 (HL-60 cell line, SRB assay, Chou Median Effective Dose equation, read-out: IC90), 248 µM; in the experiment on HT29 (HT29 cell line, SRB assay, Chou Median Effective Dose equation, read-out: IC90), 798 µM; in the experiment on OVCAR-5 (OVCAR-5 cell line, SRB assay, Chou Median Effective Dose equation, read-out: IC90) it was 1890 µM. For the same molecule, the IC90 in the experiment on NCI-H23 (NCI-H23 cell line, SRB assay, Chou Median Effective Dose equation, read-out: IC90) was more than 4000 µM; in the experiment with MCF7 (MCF7 cell line, SRB assay, Chou Median Effective Dose equation, read-out: IC90), 466 µM; in the experiment on NCI-H522 (NCI-H522 cell line, SRB assay, Chou Median Effective Dose equation, read-out: IC90), 1370 µM; in the experiment with LOX IMVI (LOX IMVI cell line, SRB assay, Chou Median Effective Dose equation, read-out: IC90), 978 µM.
On to `CC(=Cc1ccccc1)C(=O)O` [MeCA, α-methylcinnamic acid, reference compound], for which the IC50 with CFPAC (setting [1]) is 1940 µM; in the experiment with PC-3 (setting [3]), more than 4000 µM; in the experiment with SF-295 (setting [5]), more than 4000 µM; with HL-60 (setting [7]) it was 2600 µM; in the experiment with HT29 (setting [9]) it was 3960 µM; in the experiment with OVCAR-5 (setting [11]), 3730 µM. Moreover, the IC50 with NCI-H23 (setting [13]) is 3270 µM; in the experiment on MCF7 (setting [15]) it was more than 4000 µM; with NCI-H522 (setting [17]), 1980 µM; with LOX IMVI (setting [19]), 3360 µM. The IC90 in the experiment with CFPAC (setting [2]), with PC-3 (setting [4]), in the experiment on SF-295 (setting [6]), in the experiment on HL-60 (setting [8]), in the experiment with HT29 (setting [10]) and with OVCAR-5 (setting [12]) was more than 4000 µM each time. The IC90 with NCI-H23 (setting [14]) is more than 4000 µM; with MCF7 (setting [16]), more than 4000 µM; in the experiment on NCI-H522 (setting [18]), 3820 µM; in the experiment on LOX IMVI (setting [20]) it was more than 4000 µM.
Turning to `CCCC(=O)OCOC(=O)C=Cc1ccccc1` [COMB, Cinnamoyloxymethyl Butyrate], the IC50 in the experiment with CFPAC (setting [1]) is 150 µM; in the experiment with PC-3 (setting [3]), 203 µM; in the experiment with SF-295 (setting [5]), 197 µM; in the experiment on HL-60 (setting [7]) it was 443 µM; in the experiment with HT29 (setting [9]) it was 349 µM; in the experiment on OVCAR-5 (setting [11]), 367 µM. Further, the IC50 with NCI-H23 (setting [13]) is 182 µM; with MCF7 (setting [15]), 196 µM; in the experiment with NCI-H522 (setting [17]), 189 µM; in the experiment with LOX IMVI (setting [19]), 197 µM. In addition, the IC90 in the experiment on CFPAC (setting [2]) is 237 µM; in the experiment on PC-3 (setting [4]), more than 4000 µM; with SF-295 (setting [6]), more than 4000 µM; in the experiment with HL-60 (setting [8]), more than 4000 µM; in the experiment on HT29 (setting [10]), 492 µM; with OVCAR-5 (setting [12]), 500 µM. Besides, the IC90 is 249 µM in the experiment on NCI-H23 (setting [14]), more than 4000 µM in the experiment on MCF7 (setting [16]), 249 µM in the experiment on NCI-H522 (setting [18]) and 1910 µM in the experiment with LOX IMVI (setting [20]).
